Measurements as given in ChEMBL document CHEMBL4130453, “Discovery of an Isothiazole-Based Phenylpropanoic Acid GPR120 Agonist as a Development Candidate for Type 2 Diabetes” (ACS Med Chem Lett, 2017).

Columns and labels:
[1] = molecular target: Free fatty acid receptor 4 (Homo sapiens, UniProt Q5NUL3); experiment: Agonist activity at human GPR120 short splice variant expressed in HEK293 cells assessed as increase in intracellular calcium flux incubated for 30 mins measured for 300 secs at 1 sec interval by Fluo-4 NW dye based FLIPR assay; type: functional, cell-based
[2] = Metabolic stability in human liver microsomes assessed as parent compound remaining measured at 10 mins; type: ADME, microsome; details: read-out: Stability
[3] = Metabolic stability in mouse liver microsomes assessed as parent compound remaining measured at 10 mins; type: ADME, microsome; details: liver microsomes, read-out: Stability
[4] = Metabolic stability in rat liver microsomes assessed as parent compound remaining measured at 10 mins; type: ADME, microsome; details: liver microsomes, read-out: Stability
[5] = molecular target: T1, Free fatty acid receptor 4 (Homo sapiens, UniProt Q5NUL3); experiment: Agonist activity at PK-tagged human GPR120 long isoform expressed in CHOK1 cells co-expressing EA-tagged beta-arrestin assessed as beta-gal enzyme complex formation after 90 mins by enzyme fragment complementation assay; type: cell-based
T1 sequence (Q5NUL3 whole entry): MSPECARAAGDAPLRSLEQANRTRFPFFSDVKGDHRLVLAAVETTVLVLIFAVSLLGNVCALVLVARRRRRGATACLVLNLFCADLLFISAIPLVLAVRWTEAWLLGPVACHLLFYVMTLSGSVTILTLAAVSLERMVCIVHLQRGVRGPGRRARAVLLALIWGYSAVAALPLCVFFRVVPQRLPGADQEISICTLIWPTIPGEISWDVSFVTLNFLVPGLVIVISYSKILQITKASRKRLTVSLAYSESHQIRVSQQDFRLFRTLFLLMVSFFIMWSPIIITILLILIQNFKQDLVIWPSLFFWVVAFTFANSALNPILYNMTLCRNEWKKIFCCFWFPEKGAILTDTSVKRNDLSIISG

SMILES	EC50 [1] [nM]	remaining at 10 min [2] [%]	remaining at 10 min [3] [%]	remaining at 10 min [4] [%]	EC50 [5] [nM]
CCc1ccc(-c2nsc(CC)c2COc2ccc(CCC(=O)O)c(C)c2C)cc1	680				
CCc1cc(CCC(=O)O)ccc1OCc1c(-c2ccc(Cl)cc2)nsc1C(F)(F)F	202				
Cc1cc(OCc2c(-c3ccc(Cl)cc3)nsc2C(F)(F)F)c(F)cc1CCC(=O)O	121				
CCc1ccc(-c2nsc(OC)c2COc2ccc(CCC(=O)O)c(C)c2C)cc1	920				
Cc1c(CCC(=O)O)ccc(OCc2csnc2-c2ccc(Cl)cc2)c1C	215	86	73	71	
Cc1snc(-c2ccc(Cl)cc2)c1COc1ccc(CCC(=O)O)c(C)c1C	106	74	35	57	128
O=C(O)CCc1c(F)c(F)c(OCc2c(-c3ccc(Cl)cc3)nsc2C(F)(F)F)c(F)c1F	173				
O=C(O)CCc1cc(F)c(OCc2c(-c3ccc(OC(F)(F)F)cc3)nsc2C(F)(F)F)c(F)c1	314				99
O=C(O)CCc1cc(F)c(OCc2c(-c3ccc(C(F)(F)F)cc3)nsc2C(F)(F)F)c(F)c1	108				

Further compounds by falling EC50 [1], results first:

EC50 [1] [nM]	remaining at 10 min [2] [%]	remaining at 10 min [3] [%]	remaining at 10 min [4] [%]	EC50 [5] [nM]	SMILES
104					O=C(O)CCc1cc(F)c(OCc2c(-c3ccc(Cl)cc3)nsc2C(F)(F)F)c(F)c1F
94				105	Cc1c(CCC(=O)O)ccc(OCc2c(C(F)(F)F)nsc2-c2ccc(Cl)cc2)c1C
75					COc1ccc(-c2nsc(C(F)(F)F)c2COc2c(F)cc(CCC(=O)O)cc2F)cc1
56	76	102			CCc1ccc(-c2snc(Cl)c2COc2ccc(CCC(=O)O)c(C)c2C)cc1
51					O=C(O)CCc1cc(F)c(OCc2c(-c3ccc(Cl)cc3)nsc2C(F)(F)F)c(F)c1
